Experiments:
COX-2 [1] = assay: COX-2 protein level in A549 cells (Western blot); type: cell-based, Homo sapiens; settings: A549 cells, 1.25, 2.5, or 5 μM, 24 h
Method: Figure 6 Hc-CATH downregulates AXL via inhibiting COX-2/PGE2/AC/PKA pathway.A, effect of Hc-CATH on COX-2 protein level. A549 cells were incubated with Hc-CATH (1.25, 2.5, or 5 μM) or PBS (solvent of Hc-CATH) at 37 °C for 24 h, COX-2 protein level was examined by Western blot (upper panel) and analyzed by ImageJ (lower panel). B, effect of Hc-CATH on the enzymatic activity of COX-2. Hc-CATH (1.25, 2.5, 5, and 10 μM) or PBS was incubated with COX-2. After incubation at 37 °C for 10 min, the enzymatic activity of COX-2 was detected by enzyme activity inhibitor screening kit. Celecoxib (COX-2 inhibitor, 100 nM) was used as positive control. C, effect of Hc-CATH on PGE2 production. A549 cells were incubated with Hc-CATH (5 μM) at 37 °C. After incubation for 24 h, the level of PGE2 in the cell supernatant was detected by ELISA. D and E, effect of AC (D) and PKA (E) on Hc-CATH-induced AXL downregulation. A549 cells were incubated with forskolin (FSK, agonist of AC, 10 μM) or H89 (inhibitor of PKA, 5 μM) at 37 °C. After incubation for 1 h, the culture media were removed, cells were washed three times with PBS, and fresh culture media were added to cells in the presence of Hc-CATH (5 μM). After incubation for 24 h, AXL protein level was examined by Western blot (upper panel of D and E) and analyzed by ImageJ (lower panel of D and E). ns, not significant, ∗∗p < 0.01, and ∗∗∗p < 0.001. […]

type I IFN signaling = assay: Type I IFN signaling in U251 cells (qPCR, Western blot); type: cell-based, Homo sapiens
Method: Figure 7 Hc-CATH-induced AXL downregulation reverses the negative regulation of AXL on type I IFN signaling.A, schematic diagram of B and C. B, effect of Hc-CATH on type I IFN signaling. U251 cells were cultured in the presence of Hc-CATH (2.5 μM) or same volume of PBS (solvent of peptide). After culture at 37 °C for 24 h, type I IFN genes were tested by qPCR. C, effect of Hc-CATH on type I IFN signaling upon ZIKV challenge. U251 cells were cultured in the presence of Hc-CATH (2.5 μM) or PBS (solvent of peptide) at 37 °C for 2 h. Cells were washed with PBS and incubated with ZIKV (MOI = 1) at 37 °C for 2 h. Cell were washed with PBS again and cultured in DMEM containing 2% FBS at 37 °C for 24 h. Type I IFN genes were tested by qPCR. D, schematic diagram of E–G. E and F, U251 cells were cultured in the presence of Hc-CATH (2.5 μM) or PBS (solvent of peptide) at 37 °C for 12 h. Cells were stimulated with SeV (MOI = 1) at 37 °C for 12 h. Type I IFN gene was tested by qPCR (E). […] DMEM, Dulbecco’s modified Eagle’s medium; FBS, fetal bovine serum; IFN, interferon; MOI, multiplicity of infection; qPCR, quantitative PCR; SeV, Sendai virus; ZIKV, Zika virus.
U251 cells were cultured with Hc-CATH (2.5 μM) or PBS at 37 °C for 24 h, and cells were collected for testing type I IFN signaling gene and protein by qPCR and WB, respectively. Upon ZIKV challenge, U251 cells were incubated with Hc-CATH (2.5 μM) or PBS at 37 °C for 2 h and washed three times with PBS. Cells were then incubated with ZIKV (MOI = 1) for 2 h and washed with PBS. After culture for 24 h, type I IFN signaling genes were tested by qPCR. Upon SeV challenge, U251 cells were incubated with Hc-CATH (2.5 μM) or PBS at 37 °C for 12 h, cells were then stimulated with SeV or same volume of PBS for 12 h, and type I IFN signaling gene and protein were tested by qPCR and WB, respectively.

ZIKV = ZIKV replication stage, U251 cells (peptide added after infection); type: cell-based, ZIKV strain PRVABC59; settings: 2.5 μM after ZIKV infection, 48 h; NS3 Western blot
Method: B–I, Vero (B–G), A549 (H), or U251 (I) cells were incubated with ZIKV (MOI = 1) at 37 °C for 2 h, washed with PBS, and transferred with fresh DMEM containing 2% FBS and Hc-CATH (2.5 μM), AC5 (2.5 μM), LL-37 (2.5 μM), or PBS (solvent of peptide). After culture at 37 °C for 48 h, intracellular ZIKV RNA (B), NS3 protein (C, D, H, and I), E protein level (E, the scale bar represents 50 μm), and extracellular ZIKV titer (F and G) were detected by qPCR, Western blot, immunofluorescence staining, and plaque-forming assay, respectively.
Vero cells were incubated with ZIKV (MOI = 1) at 37 °C for 2 h, washed three times with PBS, and transferred with fresh DMEM containing 2% FBS and Hc-CATH (2.5 μM), AC5 (2.5 μM), LL-37 (2.5 μM), or PBS. After culture at 37 °C for 48 h, intracellular ZIKV RNA, NS3 protein, E protein, and extracellular ZIKV titer were detected by qPCR, WB, IF, and plaque-forming assay, respectively. The effect of Hc-CATH on ZIKV replication stage was further tested in A549 and U251 cells under the same condition, and intracellular ZIKV NS3 protein was detected by WB.

COX-2 [2] = assay: Enzymatic activity of COX-2 (inhibitor screening kit); type: biochemical; settings: 10 μM, incubated with COX-2 at 37 °C for 10 min
Method: Figure 6 Hc-CATH downregulates AXL via inhibiting COX-2/PGE2/AC/PKA pathway.A, effect of Hc-CATH on COX-2 protein level. A549 cells were incubated with Hc-CATH (1.25, 2.5, or 5 μM) or PBS (solvent of Hc-CATH) at 37 °C for 24 h, COX-2 protein level was examined by Western blot (upper panel) and analyzed by ImageJ (lower panel). B, effect of Hc-CATH on the enzymatic activity of COX-2. Hc-CATH (1.25, 2.5, 5, and 10 μM) or PBS was incubated with COX-2. After incubation at 37 °C for 10 min, the enzymatic activity of COX-2 was detected by enzyme activity inhibitor screening kit. Celecoxib (COX-2 inhibitor, 100 nM) was used as positive control. C, effect of Hc-CATH on PGE2 production. A549 cells were incubated with Hc-CATH (5 μM) at 37 °C. After incubation for 24 h, the level of PGE2 in the cell supernatant was detected by ELISA. D and E, effect of AC (D) and PKA (E) on Hc-CATH-induced AXL downregulation. […] After incubation for 24 h, AXL protein level was examined by Western blot (upper panel of D and E) and analyzed by ImageJ (lower panel of D and E). ns, not significant, ∗∗p < 0.01, and ∗∗∗p < 0.001.
The effect of Hc-CATH on the enzymatic activity of COX-2 was detected by enzyme activity inhibitor screening kit. […] After incubation at 37 °C for 10 min, the enzymatic activity of COX-2 was detected by the kit. […]

KFFKRLLKSVRRAVKKFRKKPRLIGLSTLL [Hc-CATH, cathelicidin antimicrobial peptide identified from the sea snake Hydrophis cyanocinctus]
expression of COX-2 (COX-2 [1]): did not influence the expression of COX-2 | levels of type I IFN genes in response to ZIKV infection (type I IFN signaling; 2.5 μM 2 h, then ZIKV MOI = 1, 24 h, qPCR): upregulated the levels of type I IFN genes | IFN-β expression in response to SeV stimulation (type I IFN signaling; 2.5 μM 12 h, then SeV MOI = 1 12 h, qPCR, compared with PBS): significantly increased IFN-β expression | levels of type I IFN genes (type I IFN signaling; 2.5 μM, 24 h, qPCR): significantly increased the levels of type I IFN genes | phosphorylation of TANK-binding kinase 1 and IRF3 (type I IFN signaling; 2.5 μM, Western blot, relative to PBS): increased the phosphorylation of TANK-binding kinase 1 and IRF3 | ZIKV infection in U251 cells, peptide added after infection (ZIKV): did not inhibit ZIKV infection | inhibitory rate against COX-2 activity (COX-2 [2]): about 80%

From PMC9530963, “A cathelicidin antimicrobial peptide from Hydrophis cyanocinctus inhibits Zika virus infection by downregulating expression of a viral entry factor” (The Journal of Biological Chemistry, 2022)
